Data as given in publication PMC4145316, “Cytotoxic and Apoptosis-Inducing Activity of Triterpene Glycosides from Holothuria scabra and Cucumaria frondosa against HepG2 Cells” (Marine Drugs, 2014).
Converted amounts (≈) assume the structure as drawn.

Key:
[1] = system: human gastric cancer MKN-45 cells; conditions: read-out: IC50 against MKN-45 cells; cited from earlier work
[2] = system: human hepatoma (HepG2) cells; assay: MTT cytotoxicity assay, HepG2 cells; assay type: cell-based; conditions: for IC50 (μg/mL) HepG2: means ± SD (n = 3); for IC50: Homo sapiens, HepG2, means ± SD (n = 3), read-out: IC50 (μg/mL) HepG2
Protocol: (§1) Human hepatoma (HepG2), human cervical cancer (HeLa), human leukemia (K562) and human liver (HL-7702) cells were obtained by Shanghai Institute of Biochemistry and Cell Biology, and maintained in the logarithmic phase of growth in RPMI-1640 complete medium supplemented with 2 mM L-glutamine (Sigma Chemical Co., Saint Louis, MO, USA), 100 IU/mL penicillin, 100 μg/mL streptomycin and 10% FCS at 37 °C under humidified air with 5% CO2.
(§2) The effect of compounds 1–13 on the viability of HepG2, HeLa, K562 and HL-7702 cells was determined by MIT assay as described previously. Briefly, the tumor and normal cells were seeded at 1 × 10^4 cells/well in a 96-well microtiter plate and incubated at 37 °C in a humidified atmosphere with 5% CO2. After 24 h, compounds 1–13, the positive drug CDDP or RPMI-1640 medium were added into each well, and the plates were incubated at 37 °C for the indicated time. Each concentration was repeated four wells. 50 μL of MTT solution (2 mg/mL) was added to each well 4 h before incubation end, and incubated further for 4 h. The plates were centrifuged (1400× g, 5 min) and the untransformed MTT was removed carefully by pipetting. To each well, 150 μL of DMSO was added and the absorbance was evaluated in an ELISA reader at 570 nm after 15 min. The inhibitory rates and 50% inhibitory concentrations (IC50) values towards cell viability were calculated by NDST software. Each test was performed in triplicate.

[3] = system: human leukemia (K562) cells; assay: MTT cytotoxicity assay, K562 cells; assay type: cell-based; conditions: for IC50 (μg/mL) K562: means ± SD (n = 3); for IC50: Homo sapiens, K562, means ± SD (n = 3), read-out: IC50 (μg/mL) K562
Protocol: as §1, §2

[4] = system: human liver (HL-7702) cells; assay: MTT cytotoxicity assay, normal HL-7702 cells; assay type: cell-based; conditions: for IC50 (μg/mL) HL-7702 / IC50: MTT assay, normal hepatocytes, means ± SD (n = 3); for Ratio (HL-7702/HepG2): ratio of IC50 values against HL-7702 and HepG2 cells, selective cytotoxicity; for IC50: Homo sapiens, L02, read-out: IC50 (μg/mL) HL-7702
Protocol: as §1, §2

[5] = system: human cervical cancer (HeLa) cells; assay: MTT cytotoxicity assay, HeLa cells; assay type: cell-based; conditions: means ± SD (n = 3); for IC50: Homo sapiens, HeLa, read-out: IC50 (μg/mL) HeLa
Protocol: as §1, §2

HeLa cells = system: HeLa cells; set-up: method as in PMID 18288810; conditions: cited from earlier work

| Compound | IC50 [1] [nM] | IC50 (μg/mL) HepG2 [2] [µg/mL] | IC50 (μg/mL) K562 [3] [µg/mL] | IC50 (μg/mL) HL-7702 [4] [µg/mL] | Ratio (HL-7702/HepG2) [4] | IC50 (μg/mL) HeLa [5] [µg/mL] | IC50 [2] [µg/mL] | IC50 [3] [µg/mL] | IC50 [4] [µg/mL] | IC50 [5] [µg/mL] | IC50 against HeLa cells (HeLa cells) [µg/mL] | Ratio (HL-7702/HepG2) ([4]; listed as 10) |
| --- | --- | --- | --- | --- | --- | --- | --- | --- | --- | --- | --- | --- |
| CC(C)CCC[C@]1(C)OC(=O)C23[C@@H](O)C=C4[C@@H](CC[C@H]5C(C)(C)C(O[C@@H]6OC[C@@H](OS(=O)(=O)O)[C@H](O)[C@H]6O[C@@H]6O[C@H](C)[C@@H](O)[C@H](O)[C@H]6O)CC[C@]45C)[C@]2(C)CC[C@@]31O (stereo partly drawn) [echinoside B, reference compound] | 180 |  |  |  |  |  |  |  |  |  |  |  |
| HS-1 [HS-1 (5)] |  | 6.10 ± 0.33 | 12.95 ± 1.54 | 7.19 ± 0.20 | 1.18 | 3.20 ± 0.32 |  |  |  |  |  |  |
| 24-Dehydro frondoside A6 [24-Dehydro frondoside A6 (13)] |  | 3.57 ± 0.54 | 5.61 ± 1.05 | 7.55 ± 0.83 | 2.12 | 3.16 ± 0.34 |  |  |  |  |  |  |
| CO[C@@H]1[C@@H](O)[C@H](O[C@@H]2[C@@H](O)[C@H](O[C@H]3[C@H](O)[C@@H](O)[C@H](O[C@H]4[C@H](O[C@H]5CC[C@]6(C)C7=C[C@H](O)[C@@]89C(=O)O[C@@](C)(C%10CCC(C)(C)O%10)[C@@]8(O)CC[C@@]9(C)[C@@H]7CC[C@H]6C5(C)C)OC[C@@H](OS(=O)(=O)O)[C@@H]4O)O[C@@H]3C)O[C@H](CO)[C@H]2O)O[C@H](CO)[C@H]1O (stereo partly drawn) [Holothurin A (6), Holothurin A] | 2370 |  |  |  | 1.11 |  | 3.46 ± 0.33 (≈ 2.88 µM) | 8.94 ± 0.01 (≈ 7.45 µM) | 3.85 ± 0.32 (≈ 3.21 µM) | 3.76 ± 0.47 (≈ 3.14 µM) |  |  |
| Scabraside D [Scabraside D (8)] |  | 3.33 ± 0.33 | 10.06 ± 1.06 | 4.40 ± 0.22 | 1.32 | 3.84 ± 0.42 |  |  |  |  |  |  |
| C[C@H]1O[C@@H](O[C@H]2[C@H](O[C@H]3CC[C@]4(C)C5=C[C@H](O)C67C(=O)O[C@@](C)(C8CCC(C)(C)O8)[C@@]6(O)CC[C@@]7(C)[C@@H]5CCC4C3(C)C)OC[C@@H](OS(=O)(=O)[O-])[C@@H]2O)[C@H](O)[C@@H](O)[C@@H]1O.[Na+] (stereo partly drawn) [Holothurin B (3), Holothurin B] | 1590 | 1.79 ± 0.02 | 3.64 ± 0.04 | 2.69 ± 0.45 | 1.50 | 2.05 ± 0.11 |  |  |  |  |  |  |
| okhotosides B2 |  |  |  |  |  |  |  |  |  |  | 13.0 |  |
| Holothurin B4 [Holothurin B4 (4)] |  | 2.71 ± 0.12 | 3.55 ± 0.53 | 4.58 ± 0.54 | 1.69 | 2.71 ± 0.54 |  |  |  |  |  |  |
| Frondoside A6 [Frondoside A6 (12)] |  | 2.53 ± 0.66 | 6.59 ± 0.11 | 6.05 ± 0.67 | 2.39 | 3.75 ± 0.51 |  |  |  |  |  |  |
| Scabraside B [Scabraside B (9)] |  | 7.29 ± 0.62 | 11.85 ± 2.26 | 11.03 ± 1.37 | 1.51 | 4.44 ± 0.85 |  |  |  |  |  |  |
| okhotosides B3 |  |  |  |  |  |  |  |  |  |  | 17.8 |  |
| N.N.[Cl][Pt][Cl] [CDDP, cis-diamminedichloroplatinum, reference compound] |  | 2.05 ± 0.13 | 2.99 ± 0.24 | 4.48 ± 0.41 | 2.18 | 3.41 ± 0.37 |  |  |  |  |  |  |
| CO[C@@H]1[C@@H](O)[C@H](O[C@@H]2[C@@H](O)[C@H](O[C@H]3[C@H](O)[C@@H](O)[C@H](O[C@H]4[C@H](O[C@H]5CC[C@]6(C)C7=C[C@H](O)C89C(=O)O[C@@](C)(CCC=C(C)C)[C@@]8(O)CC[C@@]9(C)C7CCC6C5(C)C)OC[C@@H](OS(=O)(=O)[O-])[C@@H]4O)O[C@@H]3C)O[C@H](CO)[C@H]2O)O[C@H](CO)[C@H]1O.[Na+] (stereo partly drawn) [24-Dehydro echinoside A (2), 24-Dehydro echinoside A] | 1600 | 1.95 ± 0.09 | 6.15 ± 0.24 | 3.75 ± 0.40 | 1.92 | 2.06 ± 0.27 |  |  |  |  |  |  |
| CO[C@@H]1[C@@H](O)[C@H](O[C@@H]2[C@@H](O)[C@H](O[C@H]3[C@H](O)[C@@H](O[C@@H]4OC[C@@H](O)[C@H](O)[C@H]4O)[C@H](O[C@H]4[C@H](OC5CC[C@]6(C)[C@H]7CCC89C(=O)O[C@@](C)(CCCC(C)C)C8[C@@H](OC(C)=O)C[C@@]9(C)C7=CC[C@H]6C5(C)C)OC[C@@H](OS(=O)(=O)O)[C@@H]4O)O[C@@H]3C)OC[C@H]2O)O[C@H](CO)[C@H]1O (stereo partly drawn) [Frondoside A (11), Frondoside A] |  |  |  |  | 1.31 |  | 4.14 ± 0.57 (≈ 3.15 µM) | 3.76 ± 0.05 (≈ 2.86 µM) | 5.42 ± 0.98 (≈ 4.13 µM) | 3.3 ± 0.05 (≈ 2.51 µM) |  |  |
| CO[C@@H]1[C@@H](O)[C@H](CO)O[C@@H](O[C@H]2[C@@H](O)[C@@H](O[C@H]3[C@@H](O)[C@@H](O[C@H]4OC[C@@H](O)[C@@H](O)[C@@H]4O)[C@H](O[C@H]4[C@H](O[C@H]5CC[C@@]6(C)[C@H](CC=C7[C@@H]6CC[C@]68C(=O)O[C@](C)(CCCC(C)C)[C@H]6[C@H](OC(C)=O)C[C@@]78C)C5(C)C)OC[C@@H](OS(=O)(=O)O)[C@H]4O)O[C@@H]3C)OC[C@@H]2O)[C@@H]1O [Frondoside A1 (10), Frondoside A1] |  | 1.91 ± 0.03 (≈ 1.45 µM) | 2.21 ± 0.56 (≈ 1.68 µM) | 4.96 ± 1.10 (≈ 3.78 µM) | 2.60 | 2.03 ± 0.17 (≈ 1.55 µM) |  |  |  |  |  | more than 2 |
| CO[C@@H]1[C@@H](O)[C@H](O[C@@H]2[C@@H](O)[C@H](O[C@H]3[C@H](O)[C@@H](O)[C@H](O[C@H]4[C@H](O[C@H]5CC[C@]6(C)C7=C[C@H](O)[C@]89C(=O)O[C@@](C)(C(O)CCC(C)C)[C@@]8(O)CC[C@@]9(C)[C@@H]7CC[C@H]6C5(C)C)OC[C@@H](OS(=O)(=O)[O-])[C@@H]4O)O[C@@H]3C)O[C@H](CO)[C@H]2O)O[C@H](CO)[C@H]1O.[Na+] (stereo partly drawn) [Holothurin A1 (7), Holothurin A1] |  | 2.90 ± 0.21 | 6.50 ± 0.01 | 3.59 ± 0.05 | 1.24 | 2.84 ± 0.09 |  |  |  |  |  |  |
